Patent publication US7709498B2, “Quinoline derivatives as antibacterial agents” (Janssen Pharmaceutica N.V., priority 2005, dated 2010)
Converted amounts (≈) assume the structure as drawn.

Experiments:
Format in all cases: cell-based
[1] = system: Enterococcus faecalis (ATCC29212); test: Microtitre plate assay, IC90 determination, EFA 29212; conditions: 90% inhibitory concentration for bacterial growth, 37° C., resazurin fluorescence; for IC90: Enterococcus faecalis, ATCC29212, 24 h, read-out: IC90 (μg/ml) EFA 29212; for IC90 (μg/ml) EFA 29212: 24 hours
Procedure: (§1) The bacteria used in this study were grown overnight in flasks containing 100 ml Mueller-Hinton Broth (Becton Dickinson—cat. no. 275730) in sterile de-ionized water, with shaking, at 37° C. Stocks (0.5 ml/tube) were stored at −70° C. until use. Bacteria titrations were performed in microtiter plates to detect the TCID50, in which the TCID50 represents the dilution that gives rise to bacterial growth in 50% of inoculated cultures.
(§2) In general, an inoculum level of approximately 100 TCID50 was used for susceptibility testing.
(§3) Flat-bottom, sterile 96-well plastic microtiter plates were filled with 180 μl of sterile deionized water, supplemented with 0.25% BSA. Subsequently, stock solutions (7.8× final test concentration) of compounds were added in 45 μl volumes in column 2. Serial five-fold dilutions (45 μl in 180 μl) were made directly in the microtiter plates from column 2 to reach column 11. Untreated control samples with (column 1) and without (column 12) inoculum were included in each microtiter plate. Depending on the bacteria type, approximately 10 to 60 CFU per well of bacteria inoculum (100 TCID50), in a volume of 100 μl in 2.8× Mueller-Hinton broth medium, was added to the rows A to H, except column 12. The same volume of broth medium without inoculum was added to column 12 in row A to H. The cultures were incubated at 37° C. for 24 hours under a normal atmosphere (incubator with open air valve and continuous ventilation). At the end of incubation, one day after inoculation, the bacterial growth was quantitated fluorometrically. Therefore resazurin (0.6 mg/ml) was added in a volume of 20 μl to all wells 3 hours after inoculation, and the plates were re-incubated overnight. A change in colour from blue to pink indicated the growth of bacteria. The fluorescence was read in a computer-controlled fluorometer (Cytofluor Biosearch) at an excitation wavelength of 530 nm and an emission wavelength of 590 nm. The % growth inhibition achieved by the compounds was calculated according to standard methods. The IC90 (expressed in μg/ml) was defined as the 90% inhibitory concentration for bacterial growth.
(§4) BSU 3639 means Bacillus subtilis (ATCC43639); ECO 25922 means Escherichia coli (ATCC25922); EFA 14506 means Enterococcus faecalis (ATCC14506); EFA 29212 means Enterococcus faecalis (ATCC29212); LMO 49594 means Listeria monocytogenes (ATCC49594); PAE 27853 means Pseudomonas aeruginosa (ATCC27853); SMU 33402 means Streptococcus mutans (ATCC33402); SPN 6305 means Streptococcus pneumoniae (ATCC6305); SPY 8668 means Streptococcus pyogens (ATCC8668); STA 43300 means Staphylococcus aureus (ATCC43300); STA 25923 means Staphylococcus aureus (ATCC25923); STA 29213 means Staphylococcus aureus (ATCC29213); STA RMETH means methicilline resistant Staphylococcus aureus (MRSA) (a clinical isolate from the University of Antwerp). ATCC means American type tissue culture.

[2] = system: methicilline resistant Staphylococcus aureus (MRSA) (a clinical isolate from the University of Antwerp); test: Microtitre plate assay, IC90 determination, STA RMETH; conditions: 90% inhibitory concentration for bacterial growth, 37° C., resazurin fluorescence; for IC90 (μg/ml) STA RMETH: 24 hours; for IC90: Staphylococcus aureus, MRSA, 24 h, read-out: IC90 (μg/ml) STA RMETH
Procedure: as §1, §2, §3, §4

[3] = system: Staphylococcus aureus (ATCC29213); test: Microtitre plate assay, IC90 determination, STA 29213; conditions: 90% inhibitory concentration for bacterial growth, 37° C., 24 hours, resazurin fluorescence
Procedure: as §1, §2
(§5) Flat-bottom, sterile 96-well plastic microtiter plates were filled with 180 μl of sterile deionized water, supplemented with 0.25% BSA. Subsequently, stock solutions (7.8× final test concentration) of compounds were added in 45 μl volumes in column 2. Serial five-fold dilutions (45 μl in 180 μl) were made directly in the microtiter plates from column 2 to reach column 11. Untreated control samples with (column 1) and without (column 12) inoculum were included in each microtiter plate. […] At the end of incubation, one day after inoculation, the bacterial growth was quantitated fluorometrically. […] The fluorescence was read in a computer-controlled fluorometer (Cytofluor Biosearch) at an excitation wavelength of 530 nm and an emission wavelength of 590 nm. The % growth inhibition achieved by the compounds was calculated according to standard methods. […]

[4] = system: Streptococcus pyogens (ATCC8668); test: Microtitre plate assay, IC90 determination, SPY 8668; conditions: 90% inhibitory concentration for bacterial growth, 37° C., resazurin fluorescence; for IC90 (μg/ml) SPY 8668: 24 hours
Procedure: as §1, §2, §3, §4

[5] = system: Bacillus subtilis (ATCC43639); test: Microtitre plate assay, IC90 determination, BSU 43639; conditions: 90% inhibitory concentration for bacterial growth, 37° C., resazurin fluorescence; for IC90: Bacillus subtilis, ATCC43639, 24 h, read-out: IC90 (μg/ml) BSU 43639; for IC90 (μg/ml) BSU 43639: 24 hours
Procedure: as §1, §2, §3, §4

[6] = system: Streptococcus mutans (ATCC33402); test: Microtitre plate assay, IC90 determination, SMU 33402; conditions: 90% inhibitory concentration for bacterial growth, 37° C., resazurin fluorescence; for IC90 (μg/ml) SMU 33402: 24 hours
Procedure: as §1, §2, §3, §4

[7] = system: Listeria monocytogenes (ATCC49594); test: Microtitre plate assay, IC90 determination, LMO 49594; conditions: 90% inhibitory concentration for bacterial growth, 37° C., resazurin fluorescence; for IC90 (μg/ml) LMO 49594: 24 hours
Procedure: as §1, §2, §3, §4

[8] = system: Staphylococcus aureus (ATCC25923); test: Microtitre plate assay, IC90 determination, STA 25923; conditions: 90% inhibitory concentration for bacterial growth, 37° C., resazurin fluorescence; for IC90 (μg/ml) STA 25923: 24 hours; for IC90: Staphylococcus aureus, ATCC25923, 24 h, read-out: IC90 (μg/ml) STA 25923
Procedure: as §1, §2, §3, §4

[9] = system: Staphylococcus aureus (ATCC43300); test: Microtitre plate assay, IC90 determination, STA 43300; conditions: 90% inhibitory concentration for bacterial growth, 37° C., 24 hours, resazurin fluorescence
Procedure: as §1, §2, §3, §4

[10] = system: Pseudomonas aeruginosa (ATCC27853); test: Microtitre plate assay, IC90 determination, PAE 27853; conditions: 90% inhibitory concentration for bacterial growth, 37° C., resazurin fluorescence; for IC90 (μg/ml) PAE 27853: 24 hours
Procedure: as §1, §2, §3, §4

[11] = system: Streptococcus pneumoniae (ATCC6305); test: Microtitre plate assay, IC90 determination, SPN 6305; conditions: 90% inhibitory concentration for bacterial growth, 37° C., resazurin fluorescence; for IC90 (μg/ml) SPN 6305: 24 hours; for IC90: Streptococcus pneumoniae, ATCC6305, 24 h, read-out: IC90 (μg/ml) SPN 6305
Procedure: as §1, §2, §3, §4

[12] = system: Enterococcus faecalis (ATCC14506); test: Microtitre plate assay, IC90 determination, EFA 14506; conditions: 90% inhibitory concentration for bacterial growth, 37° C., resazurin fluorescence; for IC90 (μg/ml) EFA 14506: 24 hours; for IC90: Enterococcus faecalis, ATCC14506, 24 h, read-out: IC90 (μg/ml) EFA 14506
Procedure: as §1, §2, §3, §4

[13] = system: Escherichia coli (ATCC25922); test: Microtitre plate assay, IC90 determination, ECO 25922; conditions: 90% inhibitory concentration for bacterial growth, 37° C., 24 hours, resazurin fluorescence, read-out: IC90 (μg/ml) ECO 25922
Procedure: as §1, §2, §5

SMILES	IC90 (μg/ml) STA RMETH [2] [µg/mL]	IC90 (μg/ml) SPY 8668 [4] [µg/mL]	IC90 (μg/ml) SMU 33402 [6] [µg/mL]	IC90 (μg/ml) LMO 49594 [7] [µg/mL]	IC90 (μg/ml) EFA 29212 [1] [µg/mL]	IC90 (μg/ml) BSU 43639 [5] [µg/mL]	IC90 (μg/ml) STA 25923 [8] [µg/mL]	IC90 (μg/ml) STA 43300 [9] [µg/mL]	IC90 (μg/ml) PAE 27853 [10] [µg/mL]	IC90 (μg/ml) SPN 6305 [11] [µg/mL]	IC90 (μg/ml) EFA 14506 [12] [µg/mL]	further results
COc1nc2ccc(Br)cc2cc1C(c1ccccc1)C(O)(CCn1ccnc1)c1ccccc1 (stereo not drawn) [Compound 50]	10.5 (≈ 19.9 µM)	26.5 (≈ 50.1 µM)	21.0 (≈ 39.7 µM)	23.6 (≈ 44.7 µM)								IC90 [1]: 10.5 µg/mL (≈ 19.9 µM); IC90 ([3]; read-out: IC90 (μg/ml) STA 29213): 26.5 µg/mL (≈ 50.1 µM); IC90 [5]: 10.5 µg/mL (≈ 19.9 µM)
COc1nc2ccc(Br)cc2cc1C(c1ccccc1)C(O)(CCN1CCN(C)CC1)c1ccc2cc(Br)ccc2c1 (racemic) [Compound 154]	24.5 (≈ 35.5 µM)	27.4 (≈ 39.7 µM)		27.4 (≈ 39.7 µM)	27.4 (≈ 39.7 µM)	10.9 (≈ 15.8 µM)	13.8 (≈ 20 µM)					
COc1nc2ccc(Br)cc2cc1C(c1ccccc1)C(O)(CCN(C)C)c1cccc2ccccc12 (stereo not drawn) [Compound 14]		2.8 (≈ 5.04 µM)	12.4 (≈ 22.3 µM)	2.5 (≈ 4.5 µM)		11.1 (≈ 20 µM)		5.6 (≈ 10.1 µM)	5.0 (≈ 9 µM)	6.2 (≈ 11.2 µM)	9.9 (≈ 17.8 µM)	IC90 [1]: 5 µg/mL (≈ 9 µM); IC90 [2]: 14 µg/mL (≈ 25.2 µM); IC90 [8]: 9.9 µg/mL (≈ 17.8 µM)
CCNCCC(O)(c1ccc(F)cc1F)C(c1ccccc1)c1cc2cc(Br)ccc2nc1OC (racemic) [Compound A]		10.8 (≈ 19.9 µM)	10.8 (≈ 19.9 µM)				10.8 (≈ 19.9 µM)			1.1 (≈ 2.03 µM)		IC90 (μg/ml) STA 29213 [3]: 12.1 µg/mL (≈ 22.3 µM)
COc1nc2ccc(Br)cc2cc1C(c1ccccc1)C(O)(CCN(C)C)c1cccc2ccccc12 (stereo not drawn) [Compound 15]		2.2 (≈ 3.96 µM)	12.4 (≈ 22.3 µM)	2.5 (≈ 4.5 µM)	5.0 (≈ 9 µM)	24.8 (≈ 44.6 µM)		5.0 (≈ 9 µM)	12.4 (≈ 22.3 µM)	6.2 (≈ 11.2 µM)	24.8 (≈ 44.6 µM)	
COc1nc2ccc(Br)cc2cc1C(c1ccccc1)C(O)(CCN1CCCCC1)c1cccc2ccccc12 (stereo not drawn) [Compound 145]												IC90 [11]: 9.4 µg/mL (≈ 15.8 µM); IC90 [12]: 23.7 µg/mL (≈ 39.8 µM)
COc1nc2ccc(Br)cc2cc1C(c1ccccc1)C(O)(CCN1CCN(C)CC1)c1cc(Br)cc2ccccc12 (racemic) [Compound 151]	15.4 (≈ 22.3 µM)										15.4 (≈ 22.3 µM)	
CSc1nc2ccc(Br)cc2cc1C(c1ccccc1)C(O)(CCN(C)C)c1ccccc1 (stereo not drawn) [Compound 33]		2.6 (≈ 4.99 µM)	10.4 (≈ 19.9 µM)	2.3 (≈ 4.41 µM)	4.6 (≈ 8.82 µM)		13.1 (≈ 25.1 µM)	5.9 (≈ 11.3 µM)	11.7 (≈ 22.4 µM)	5.9 (≈ 11.3 µM)		IC90 [5]: 10.4 µg/mL (≈ 19.9 µM); IC90 [12]: 11.7 µg/mL (≈ 22.4 µM)
COc1nc2ccc(Br)cc2cc1C(c1ccccc1)C(O)(CCN(C)C)c1ccc2ccccc2c1 (stereo not drawn) [Compound 45]												IC90 [5]: 11.1 µg/mL (≈ 20 µM); IC90 [12]: 12.4 µg/mL (≈ 22.3 µM)
COc1nc2ccc(Br)cc2cc1C(c1ccccc1)C(O)(CCN1CCN(C)CC1)c1ccc2ccccc2c1 (racemic) [Compound 137]	21.2 (≈ 34.7 µM)						8.4 (≈ 13.8 µM)		21.2 (≈ 34.7 µM)	23.8 (≈ 39 µM)		
CSc1nc2ccc(Br)cc2cc1C(c1ccccc1)C(O)(CCN(C)C)c1ccccc1 (stereo not drawn) [Compound 32]			4.6 (≈ 8.82 µM)					13.1 (≈ 25.1 µM)		13.1 (≈ 25.1 µM)		IC90 [1]: 4.6 µg/mL (≈ 8.82 µM); IC90 [2]: 13.1 µg/mL (≈ 25.1 µM); IC90 ([10]; Pseudomonas aeruginosa, ATCC27853, 24 h, read-out: IC90 (μg/ml) PAE 27853): 10.4 µg/mL (≈ 19.9 µM); IC90 ([4]; Streptococcus, ATCC8668, 24 h, read-out: IC90 (μg/ml) SPY 8668): 4.6 µg/mL (≈ 8.82 µM); IC90 [8]: 9.3 µg/mL (≈ 17.8 µM); IC90 ([7]; Listeria monocytogenes, ATCC49594, 24 h, read-out: IC90 (μg/ml) LMO 49594): 4.6 µg/mL (≈ 8.82 µM); IC90 [13]: 11.7 µg/mL (≈ 22.4 µM)
COc1nc2ccc(Br)cc2cc1C(c1ccccc1)C(O)(CCN(C)C)c1cccc2ccccc12 (stereo not drawn) [Compound 13]		8.8 (≈ 15.8 µM)	3.5 (≈ 6.3 µM)	11.1 (≈ 20 µM)	8.8 (≈ 15.8 µM)	11.1 (≈ 20 µM)	11.1 (≈ 20 µM)	11.1 (≈ 20 µM)	2.2 (≈ 3.96 µM)	2.8 (≈ 5.04 µM)	11.1 (≈ 20 µM)	
COc1nc2ccc(Br)cc2cc1C(c1ccccc1)C(O)(CCn1ccnc1)c1ccccc1 (stereo not drawn) [Compound 49]		10.5 (≈ 19.9 µM)		10.5 (≈ 19.9 µM)								IC90 [2]: 11.8 µg/mL (≈ 22.3 µM); IC90 [8]: 5.9 µg/mL (≈ 11.2 µM); IC90 ([6]; Streptococcus mutans, ATCC33402, 24 h, read-out: IC90 (μg/ml) SMU 33402): 10.5 µg/mL (≈ 19.9 µM); IC90 [11]: 13.3 µg/mL (≈ 25.2 µM)
